Measurements from ChEMBL document CHEMBL4393697, “Lipophilic efficient phenylthiazoles with potent undecaprenyl pyrophosphatase inhibitory activity” (Eur J Med Chem, 2019).
Values after ≈ are worked out from the molar mass of the structure shown. Active and inactive are the calls of the source. No cut-off for these calls is given here.

What was measured:
[1] = system: Staphylococcus aureus; assay: Antibacterial activity against Staphylococcus aureus NRS107 assessed as reduction in bacterial cell growth incubated for 18 to 20 hrs by broth microdilution method; type: functional
[2] = system: Staphylococcus aureus; assay: Bactericidal activity against vancomycin resistant Staphylococcus aureus VRS12 assessed as reduction in bacterial cell growth incubated for 18 to 20 hrs followed by re-plating on tryptic soy agar plates at 37 degC for 18 hrs by broth microdilution assay; type: functional
[3] = system: Staphylococcus aureus; assay: Ratio of MBC to MIC for Staphylococcus aureus NRS107 by broth microdilution assay; type: functional
[4] = system: Streptococcus pneumoniae; assay: Ratio of MBC to MIC for Cephalosporin resistant Streptococcus pneumoniae ATCC 51916 by broth microdilution method; type: functional
[5] = system: Streptococcus pneumoniae; assay: Ratio of MBC to MIC for Methicillin resistant Streptococcus pneumoniae ATCC 700677 by broth microdilution method; type: functional
[6] = system: Streptococcus pneumoniae; assay: Bactericidal activity against Cephalosporin resistant Streptococcus pneumoniae ATCC 51916 assessed as reduction in bacterial cell growth incubated for 18 to 20 hrs followed by re-plating on tryptic soy agar plates at 37 degC for 18 hrs by broth microdilution assay; type: functional
[7] = system: J774; assay: Cytotoxicity against mouse J774 assessed as reduction in cell viability at 16 ug/ml incubated for 24 hrs by MTS assay; type: cell-based; conditions: j774, 24 h
[8] = system: Staphylococcus aureus; assay: Bactericidal activity against Staphylococcus aureus ATCC 6538 assessed as reduction in bacterial cell growth incubated for 18 to 20 hrs followed by re-plating on tryptic soy agar plates at 37 degC for 18 hrs by broth microdilution assay; type: functional
[9] = system: Enterococcus faecalis; assay: Ratio of MBC to MIC for vancomycin resistant Enterococcus faecalis ATCC 51299 by broth microdilution method; type: functional
[10] = system: Listeria monocytogenes; assay: Ratio of MBC to MIC for Listeria monocytogenes ATCC 19111 by broth microdilution assay; type: functional
[11] = system: Enterococcus faecium; assay: Ratio of MBC to MIC for vancomycin resistant Enterococcus faecium ATCC 700221 by broth microdilution method; type: functional
[12] = system: Staphylococcus aureus; assay: Ratio of MBC to MIC for Staphylococcus aureus ATCC 6538 by broth microdilution assay; type: functional
[13] = system: Enterococcus faecium; assay: Antibacterial activity against vancomycin resistant Enterococcus faecium ATCC 700221 assessed as reduction in bacterial cell growth incubated for 18 to 20 hrs by broth microdilution method; type: functional
[14] = system: Staphylococcus aureus; assay: Antibacterial activity against methicillin-resistant Staphylococcus aureus USA400 assessed as reduction in CFU at 4 x MIC preincubated for 12 hrs in Tryptic soy broth followed by incubation for 18 to 20 hrs on TSA plate by time-kill assay; type: functional
[15] = system: Staphylococcus aureus; assay: Resistance index, ratio of MIC for antibacterial activity against methicillin-resistant Staphylococcus aureus USA400 treated repeatedly over 6 passages to MIC for antibacterial activity against methicillin-resistant Staphylococcus aureus USA400 treated for 18 to 20 hrs by broth microdilution assay; type: functional
[16] = system: Staphylococcus aureus; assay: Antibacterial activity against methicillin-resistant Staphylococcus aureus USA400 assessed as reduction in CFU at 4 x MIC preincubated for 24 hrs in Tryptic soy broth followed by incubation for 18 to 20 hrs on TSA plate by time-kill assay; type: functional, organism-based
[17] = system: J774; assay: Cytotoxicity against mouse J774 cells reduction in cell viability up to 32 ug/ml incubated for 24 hrs by MTS assay; type: cell-based; conditions: j774, 24 h
[18] = system: Staphylococcus aureus; assay: Antibacterial activity against methicillin-resistant Staphylococcus aureus USA400 treated over 14 passages by broth microdilution assay; type: functional, organism-based
[19] = system: Staphylococcus aureus; assay: Antibacterial activity against methicillin-resistant Staphylococcus aureus USA400 assessed as reduction in CFU at 4 x MIC preincubated for 6 hrs in Tryptic soy broth followed by incubation for 18 to 20 hrs on TSA plate by time-kill assay; type: functional, organism-based

Structure (SMILES): C/C(=N\NC(=N)N)c1sc(-c2ccc(C#CC(C)(C)O)cc2)nc1C
- MIC [1]: 4 µg/mL (≈ 11.3 µM)
- MBC [2]: 16 µg/mL (≈ 45 µM)
- Ratio [3]: 2
- Ratio [4]: 2
- Ratio [5]: 2
- MBC [6]: 8 µg/mL (≈ 22.5 µM)
- Activity [7]: Toxic
- MBC [8]: 4 µg/mL (≈ 11.3 µM)
- Ratio [9]: 2
- Ratio [10]: 2
- Ratio [11]: 2
- Ratio [12]: 2
- MIC [13]: 2 µg/mL (≈ 5.63 µM)

Structure (SMILES): C/C(=N\NC(=N)N)c1sc(-c2ccc(C#Cc3ccc(N)cc3)cc2)nc1C
- MIC [1]: 4 µg/mL (≈ 10.3 µM)
- MBC [2]: 32 µg/mL (≈ 82.4 µM)
- Activity [14]: 3 log10CFU
- Ratio [15]: 1
- MBC [6]: 32 µg/mL (≈ 82.4 µM)
- inhibition [16]: Active
- Activity [7]: Non-Toxic
- MBC [8]: 4 µg/mL (≈ 10.3 µM)
- Activity [17]: Non-Toxic
- MIC [13]: 4 µg/mL (≈ 10.3 µM)

Structure (SMILES): C/C(=N\NC(=N)N)c1sc(-c2ccc(C#CC3(O)CCCCC3)cc2)nc1C
- MIC [1]: 4 µg/mL (≈ 10.1 µM)
- MBC [2]: 8 µg/mL (≈ 20.2 µM)
- Ratio [3]: 2
- Ratio [4]: 2
- Ratio [5]: 2
- MBC [6]: 8 µg/mL (≈ 20.2 µM)
- Activity [7]: Non-Toxic
- MBC [8]: 4 µg/mL (≈ 10.1 µM)
- Activity [18]: Active
- Ratio [9]: 2
- Ratio [10]: 2
- Ratio [11]: 2
- Ratio [12]: 2
- inhibition [19]: Active
- MIC [13]: 1 µg/mL (≈ 2.53 µM)

Structure (SMILES): C/C(=N\NC(=N)N)c1sc(-c2ccc(C#Cc3ccc(C)s3)cc2)nc1C
- MIC [1]: 4 µg/mL (≈ 10.2 µM)
- MBC [2]: 16 µg/mL (≈ 40.7 µM)
- Activity [14]: 3 log10CFU
- Ratio [15]: 1
- MBC [6]: 16 µg/mL (≈ 40.7 µM)
- inhibition [16]: Active
- Activity [7]: Non-Toxic
- MBC [8]: 4 µg/mL (≈ 10.2 µM)
- MIC [13]: 2 µg/mL (≈ 5.08 µM)
